{
  "source": "ChEMBL document CHEMBL1158819",
  "about": "“Zyzzyanones B-D, dipyrroloquinones from the marine sponge Zyzzya fuliginosa” (J Nat Prod, 2005)",
  "data": [
    {"assay": "Cytotoxicity against mouse EAC cells", "type": "functional, cell-based", "details": "Ehrlich", "units": {"IC50": "µg/mL"}, "values": [
      {"smiles": "CNCCc1c[nH]c2c1C(=O)c1c(-c3ccc(O)cc3)c[nH]c1C2=O", "note": "[ZYZZYANONE B]", "IC50": 25},
      {"smiles": "CN(C=O)CCc1cn(C)c2c1C(=O)c1c(-c3ccc(O)cc3)c[nH]c1C2=O", "note": "[ZYZZYANONE C]", "IC50": 25},
      {"smiles": "CN(C=O)CCc1c[nH]c2c1C(=O)c1c(-c3ccc(O)cc3)c[nH]c1C2=O", "note": "[ZYZZYANONE D]", "IC50": 25}
    ]}
  ]
}
